One compound from patent US11685726B2, “Pharmaceutical compositions of 6-(2-(2H-tetrazol-5-yl)ethyl)-6-fluorodecahydroisoquinoline-3-carboxylic acid and ester derivatives thereof” (Sea Pharmaceuticals LLC, priority 2020, dated 2023) can be followed below.

The subject of data set [1] is Maximal Electroshock Seizure (MES) model in rats. The experiment in a line: Maximal Electroshock Seizure (MES) model in rats. The class given is in vivo. From the text:
Adult male Carworth Farms (CF-1) mice (25-35 g) or young male Sprague-Dawley (SD) rats (100-150 g) were obtained from Charles River Laboratories Inc (Wilmington Mass. USA). CF1 mice were typically used for the 6 Hz psychomotor seizure model (6 Hz model described in the section below) but could also be used for the Maximal electroshock seizure (MES) model if performed in mice (Maximal electroshock seizure model described in the section below). SD rats were typically used for MES model but could also be used for 6 Hz psychomotor model if performed in rats. Animals were allowed free access to food and water, except during testing periods. After delivery from supplier lab to the in vivo pharmacology testing lab, animals were allowed sufficient time to acclimate to housing conditions prior to testing. Animals were housed in plastic cages in rooms with controlled humidity, ventilation, and lighting (12 hours lights on and 12 hours darkness). The animals were housed and fed in a manner consistent with the recommendations in the “Guide for Care and Use of Laboratory Animals” (National Research Council), and in accordance with guidelines set by an Institutional Animal Care and Use Committee (IACUC). Animal experiments were conducted in a manner consistent with Animal Research: Reporting of In Vivo Experiments (ARRIVE) guidelines (UK) and were approved by an IACUC. […]
On the technique in general: In the maximal electroshock model the usual endpoint is tonic extension of the hind limbs.

A short description of data set [2]: Rat behavior observations for signs of motor impairment by trained observer. Type of data set: in vivo. Particulars: 6 mg/kg subcutaneous, rats, 30 minute observation period. Here is the method: Rat behavior pharmacology observations for signs of motor impairment by trained observer. Rats were monitored after dosing for any signs of impairment by Compound 1 administered as 6 mg/kg dose by subcutaneous route.

As for `O=C(O)[C@@H]1C[C@H]2C[C@@](F)(CCc3nnn[nH]3)CC[C@H]2CN1` [Compound 1, (3S,4aS,6S,8aR)-6-fluoro-6-[2-(1H-1,2,3,4-tetrazol-5-yl)ethyl]-decahydroisoquinoline-3-carboxylic acid], the “MES Test Results (# rats protected from seizure/# rats tested)” value in data set [1] (6 mg/kg S.C., 0.5 hours before corneal stimulus, SPHA formulation) is listed as 6/6. The “tolerability of treatment in MES study” value in data set [1] (rats, single acute systemic administration) is reported as “well tolerated”. Also, the “signs of motor impairment / tolerability or neurological changes” value in data set [2] is given as “No tolerability or neurological changes were observed”.
